Reference: patent publication US10294202B2, “Pyrrolidinones as herbicides” (FMC Corporation, priority 2013, dated 2019)

Experiments:
canarygrass = experiment: Test D pre-/postemergence herbicide test; type: in vivo, Phalaris minor; settings: for Plant response rating: Canarygrass, scale 0 to 100; for Plant response rating, Canarygrass: scale 0 to 100 (0 no effect, 100 complete control)
From the text: Seeds of plant species selected from bluegrass (annual bluegrass, Poa annua), blackgrass (Alopecurus myosuroides), canarygrass (littleseed canarygrass, Phalaris minor), chickweed (common chickweed, Stellaria media), galium (catchweed bedstraw, Galium aparine), bromegrass, downy (downy bromegrass, Bromus tectorum), field poppy (Papaver rhoeas), field violet (Viola arvensis), foxtail, green (green foxtail, Setaria viridis), deadnettle (henbit deadnettle, Lamium amplexicaule), ryegrass, Italian (Italian ryegrass, Lolium multiflorum), kochia (Kochia scoparia), lambsquarters (Chenopodium album), oilseed rape (Brassica napus), pigweed (Amaranthus retroflexus), chamomile (scentless chamomile, Matricaria inodora), Russian thistle (Salsola kali), speedwell (bird's-eye speedwell, Veronica persica), barley, spring (spring barley, Hordeum vulgare), wheat, spring (spring wheat, Triticum aestivum), buckwheat, wild (wild buckwheat, Polygonum convolvulus), mustard, wild (wild mustard, Sinapis arvensis), oat, wild (wild oat, Avena fatua), radish, wild (wild radish, Raphanus raphanistrum), […]), barley, winter (winter barley, Hordeum vulgare), and wheat, winter (winter wheat, Triticum aestivum) were planted into a silt loam soil and treated preemergence with test chemicals formulated in a non-phytotoxic solvent mixture which included a surfactant. At the same time, these species were planted in pots containing Redi-Earth® planting medium (Scotts Company, 14111 Scottslawn Road, Marysville, Ohio 43041) comprising spaghnum peat moss, vermiculite, wetting agent and starter nutrients and treated with postemergence applications of the test chemicals formulated in the same manner. Plants ranged in height from 2 to 18 cm (1- to 4-leaf stage). Treated plants and controls were maintained in a controlled growth environment for 7 to 21 days after which time all species were compared to controls and visually evaluated. Plant response ratings, summarized in Table D, are based on a scale of 0 to 100 where 0 is no effect and 100 is complete control. A dash (-) response means no test result.

bluegrass = experiment: Test D pre-/postemergence herbicide test; type: in vivo, Poa annua; settings: for Plant response rating: Bluegrass, scale 0 to 100; for Plant response rating, Bluegrass: scale 0 to 100 (0 no effect, 100 complete control)
In short: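 Plants were sown in silt loam for preemergence spraying or in a peat moss/vermiculite mix for postemergence spraying at 2 to 18 cm height. Formulations used a non-phytotoxic solvent mixture with a surfactant. After 7 to 21 days, responses were scored visually from 0 (no effect) to 100 (complete control).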

morningglory = experiment: Test E preemergence herbicide test; type: in vivo, Ipomoea coccinea; set-up: key: 0 = no effect, 100 = complete control
From the text: (§1) Seeds of plant species selected from corn (Zea mays), soybean (Glycine max), velvetleaf (Abutilon theophrasti), lambsquarters (Chenopodium album), wild poinsettia (Euphorbia heterophylla), pigweed, palmer (palmer pigweed, Amaranthus palmeri), waterhemp (common waterhemp, Amaranthus rudis), surinam grass (Brachiaria decumbens), crabgrass, large (large crabgrass, Digitaria sanguinalis), crabgrass, Brazil (Brazilian crabgrass, Digitaria horizontalis), panicum, fall (fall panicum, Panicum dichotomiflorum), foxtail, giant (giant foxtail, Setaria faberii), foxtail, green (green foxtail, Setaria viridis), goosegrass (Eleusine indica), johnsongrass (Sorghum halepense), ragweed (common ragweed, Ambrosia elatior), barnyardgrass (Echinochloa crus-galli), sandbur (southern sandbur, Cenchrus echinatus), arrowleaf […] rhombifolia), ryegrass, Italian (Italian ryegrass, Lolium multiflorum), dayflower, VA (Virginia dayflower, Commelina virginica), field bindweed (Convolvulus arvensis), morningglory (Ipomoea coccinea), nightshade (eastern black nightshade, Solanum ptycanthum), kochia (Kochia scoparia), nutsedge, yellow (yellow nutsedge, Cyperus esculentus), cocklebur (common cocklebur, Xanthium strumarium), smartweed (ladysthumb smartweed, Polygonum Persicaria) and beggarticks (hairy beggarticks, Bidens pilosa), were planted into a silt loam soil and treated preemergence with test chemicals formulated in a non-phytotoxic solvent mixture which included a surfactant. Treated plants and controls were maintained in a greenhouse for 21 days, after which time all species were compared to controls and visually evaluated. Plant response ratings, summarized in Table E, are based on a scale of 0 to 100 where 0 is no effect and 100 is complete control. A dash (-) response means no test result.

surinam grass = experiment: Test E preemergence herbicide test; type: in vivo, Brachiaria decumbens; set-up: key: 0 = no effect, 100 = complete control
From the text: as §1

bermudagrass = experiment: Test C pre-/postemergence herbicide test; type: in vivo, Cynodon dactylon
In short: (§2)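 Response scores range from 0, meaning no effect, to 100, meaning complete control, assigned visually by comparison with controls roughly two weeks (13 to 15 days) after spraying. Applications were made preemergence to seeded loam–sand soil and postemergence to 1- to 4-leaf plants.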

foxtail, green = experiment: Test C pre-/postemergence herbicide test; type: in vivo, Setaria viridis
In short: as §2

[1] = Postemergence, 31 g ai/ha, scale 0 (no effect) to 100 (complete control)
[2] = Postemergence, 62 g ai/ha, scale 0 to 100 (0 no effect, 100 complete control)
[3] = Postemergence, 125 g ai/ha, scale 0 to 100 (0 no effect, 100 complete control)
[4] = Postemergence, 250 g ai/ha, scale 0 to 100 (0 no effect, 100 complete control)
[5] = Preemergence, 62 g ai/ha, scale 0 to 100
[6] = Preemergence, 125 g ai/ha, scale 0 to 100 (0 no effect, 100 complete control)
[7] = Preemergence, 31 g ai/ha, scale 0 to 100 (0 no effect, 100 complete control)
[8] = Preemergence, 250 g ai/ha, scale 0 to 100 (0 no effect, 100 complete control)

O=C1NCC(c2ccc(C(F)(F)F)cc2)C1C(=O)Nc1cccc(F)c1F (stereo not drawn) [Compound 80, N-(2,3-difluorophenyl)-2-oxo-4-[4-(trifluoromethyl)phenyl]-3-pyrrolidinecarboxamide]
Plant response rating (canarygrass; Postemergence, 31 g ai/ha): 0
Plant response rating (canarygrass; Postemergence, 62 g ai/ha): 0
Plant response rating (canarygrass; Postemergence, 125 g ai/ha): 0
Plant response rating (canarygrass; Postemergence, 250 g ai/ha): 0
Plant response rating, Canarygrass (canarygrass; Preemergence, 62 g ai/ha): 0
Plant response rating, Canarygrass (canarygrass; Preemergence, 31 g ai/ha): 0
Plant response rating (canarygrass; Preemergence, 125 g ai/ha): 10
Plant response rating (canarygrass; Preemergence, 250 g ai/ha): 20
Plant response rating (bluegrass; Postemergence, 31 g ai/ha): 5
Plant response rating (bluegrass; Postemergence, 62 g ai/ha): 10
Plant response rating (bluegrass; Postemergence, 125 g ai/ha): 15
Plant response rating (bluegrass; Postemergence, 250 g ai/ha): 10
Plant response rating, Bluegrass (bluegrass; Preemergence, 62 g ai/ha): 10
Plant response rating, Bluegrass (bluegrass; Preemergence, 31 g ai/ha): 0
Plant response rating (bluegrass; Preemergence, 125 g ai/ha): 20
Plant response rating (bluegrass; Preemergence, 250 g ai/ha): 45
Plant response rating, Morningglory (morningglory; 16 g ai/ha): 0
Plant response rating, Morningglory (morningglory; 31 g ai/ha): 0
Plant response rating, Morningglory (morningglory; 62 g ai/ha): 0
Plant response rating, Morningglory (morningglory; 125 g ai/ha): 20
Plant response rating, Morningglory (morningglory; 250 g ai/ha): 40
Plant response rating, Surinam Grass (surinam grass; 16 g ai/ha): 30
Plant response rating, Surinam Grass (surinam grass; 31 g ai/ha): 40
Plant response rating, Surinam Grass (surinam grass; 62 g ai/ha): 50
Plant response rating, Surinam Grass (surinam grass; 125 g ai/ha): 60
Plant response rating, Surinam Grass (surinam grass; 250 g ai/ha): 70

O=C1NCC(c2ccc(F)c(F)c2)C1C(=O)Nc1cccc(F)c1F (stereo not drawn) [Compound 17, N-(2,3-difluorophenyl)-4-(3,4-difluorophenyl)-2-oxo-3-pyrrolidinecarboxamide]
Plant response rating (canarygrass; Postemergence, 16 g ai/ha): 0
Plant response rating (canarygrass; Postemergence, 31 g ai/ha): 0
Plant response rating (canarygrass; Postemergence, 62 g ai/ha): 0
Plant response rating (canarygrass; Postemergence, 125 g ai/ha): 0
Plant response rating (canarygrass; Postemergence, 250 g ai/ha): 0
Plant response rating (bluegrass; Postemergence, 16 g ai/ha): 0
Plant response rating (bluegrass; Postemergence, 31 g ai/ha): 0
Plant response rating (bluegrass; Postemergence, 62 g ai/ha): 0
Plant response rating (bluegrass; Postemergence, 125 g ai/ha): 0
Plant response rating (bluegrass; Postemergence, 250 g ai/ha): 0
Plant response rating, Bermudagrass (bermudagrass; [1]): 0
Plant response rating, Bermudagrass (bermudagrass; [2]): 0
Plant response rating, Bermudagrass (bermudagrass; [3]): 0
Plant response rating, Bermudagrass (bermudagrass; [4]): 0
Plant response rating, Bermudagrass (bermudagrass; [5]): 45
Plant response rating, Bermudagrass (bermudagrass; [6]): 85
Bermudagrass plant response rating (bermudagrass; [7]): 0
Plant response rating, Bermudagrass (bermudagrass; [8]): 90
Plant response rating, Surinam Grass (surinam grass; 16 g ai/ha): 0
Plant response rating, Surinam Grass (surinam grass; 31 g ai/ha): 0
Plant response rating, Surinam Grass (surinam grass; 62 g ai/ha): 50
Plant response rating, Surinam Grass (surinam grass; 125 g ai/ha): 70
Plant response rating, Surinam Grass (surinam grass; 250 g ai/ha): 75
Plant response rating, Foxtail, Green (foxtail, green; [1]): 0
Plant response rating, Foxtail, Green (foxtail, green; [2]): 0
Plant response rating, Foxtail, Green (foxtail, green; [3]): 0
Plant response rating, Foxtail, Green (foxtail, green; [4]): 0
Plant response rating, Foxtail, Green (foxtail, green; [5]): 95
Plant response rating, Foxtail, Green (foxtail, green; [6]): 98
Foxtail, Green plant response rating (foxtail, green; [7]): 95
Plant response rating, Foxtail, Green (foxtail, green; [8]): 98

O=C1NC[C@H](c2cccc(C(F)(F)F)c2)[C@H]1C(=O)Nc1ccccc1F [Compound 204, (3R,4S)—N-(2-fluorophenyl)-2-oxo-4-[3-(trifluoromethyl)phenyl]-3-pyrrolidinecarboxamide]
Plant response rating, Canarygrass (canarygrass; Preemergence, 62 g ai/ha): 10
Plant response rating, Canarygrass (canarygrass; Preemergence, 125 g ai/ha): 10
Plant response rating, Canarygrass (canarygrass; Preemergence, 31 g ai/ha): 0
Plant response rating (canarygrass; Preemergence, 250 g ai/ha): 75
Plant response rating, Bluegrass (bluegrass; Preemergence, 62 g ai/ha): 0
Plant response rating, Bluegrass (bluegrass; Preemergence, 125 g ai/ha): 15
Plant response rating, Bluegrass (bluegrass; Preemergence, 31 g ai/ha): 0
Plant response rating (bluegrass; Preemergence, 250 g ai/ha): 35
Plant response rating, Morningglory (morningglory; 31 g ai/ha): 0
Plant response rating, Morningglory (morningglory; 62 g ai/ha): 0
Plant response rating, Morningglory (morningglory; 125 g ai/ha): 20
Plant response rating, Morningglory (morningglory; 250 g ai/ha): 30
Plant response rating, Surinam Grass (surinam grass; 31 g ai/ha): 35
Plant response rating, Surinam Grass (surinam grass; 62 g ai/ha): 60
Plant response rating, Surinam Grass (surinam grass; 125 g ai/ha): 98
Plant response rating, Surinam Grass (surinam grass; 250 g ai/ha): 95

O=C1NCC(c2ccc(OC(F)F)cc2)C1C(=O)Nc1cccc(F)c1F (racemic) [Compound 350]
Plant response rating, Morningglory (morningglory; 31 g ai/ha): 0
Plant response rating, Morningglory (morningglory; 62 g ai/ha): 0
Plant response rating, Morningglory (morningglory; 125 g ai/ha): 0
Plant response rating, Morningglory (morningglory; 250 g ai/ha): 0
Plant response rating, Surinam Grass (surinam grass; 31 g ai/ha): 0
Plant response rating, Surinam Grass (surinam grass; 62 g ai/ha): 0
Plant response rating, Surinam Grass (surinam grass; 125 g ai/ha): 50
Plant response rating, Surinam Grass (surinam grass; 250 g ai/ha): 65

O=C1NCC(c2ccc(Cl)c(F)c2)C1C(=O)Nc1cccc(F)c1F (stereo not drawn) [Compound 52]
Plant response rating (canarygrass; Postemergence, 16 g ai/ha): 0
Plant response rating (canarygrass; Postemergence, 31 g ai/ha): 0
Plant response rating (canarygrass; Postemergence, 62 g ai/ha): 0
Plant response rating (canarygrass; Postemergence, 125 g ai/ha): 0
Plant response rating (canarygrass; Postemergence, 250 g ai/ha): 0
Plant response rating, Canarygrass (canarygrass; Preemergence, 62 g ai/ha): 0
Plant response rating, Canarygrass (canarygrass; Preemergence, 16 g ai/ha): 0
Plant response rating, Canarygrass (canarygrass; Preemergence, 31 g ai/ha): 0
Plant response rating (canarygrass; Preemergence, 125 g ai/ha): 0
Plant response rating (canarygrass; Preemergence, 250 g ai/ha): 0
Plant response rating (bluegrass; Postemergence, 16 g ai/ha): 0
Plant response rating (bluegrass; Postemergence, 31 g ai/ha): 0
Plant response rating (bluegrass; Postemergence, 62 g ai/ha): 0
Plant response rating (bluegrass; Postemergence, 125 g ai/ha): 0
Plant response rating (bluegrass; Postemergence, 250 g ai/ha): 0
Plant response rating, Bluegrass (bluegrass; Preemergence, 62 g ai/ha): 0
Plant response rating, Bluegrass (bluegrass; Preemergence, 16 g ai/ha): 0
Plant response rating, Bluegrass (bluegrass; Preemergence, 31 g ai/ha): 0
Plant response rating (bluegrass; Preemergence, 125 g ai/ha): 0
Plant response rating (bluegrass; Preemergence, 250 g ai/ha): 20
Plant response rating, Bermudagrass (bermudagrass; [1]): 0
Plant response rating, Bermudagrass (bermudagrass; [2]): 0
Plant response rating, Bermudagrass (bermudagrass; [3]): 0
Plant response rating, Bermudagrass (bermudagrass; [4]): 10
Plant response rating, Bermudagrass (bermudagrass; [5]): 40
Plant response rating, Bermudagrass (bermudagrass; [6]): 40
Bermudagrass plant response rating (bermudagrass; [7]): 0
Plant response rating, Bermudagrass (bermudagrass; [8]): 65
Plant response rating, Foxtail, Green (foxtail, green; [1]): 0
Plant response rating, Foxtail, Green (foxtail, green; [2]): 10
Plant response rating, Foxtail, Green (foxtail, green; [3]): 30
Plant response rating, Foxtail, Green (foxtail, green; [4]): 80
Plant response rating, Foxtail, Green (foxtail, green; [5]): 90
Plant response rating, Foxtail, Green (foxtail, green; [6]): 90
Foxtail, Green plant response rating (foxtail, green; [7]): 80
Plant response rating, Foxtail, Green (foxtail, green; [8]): 90
